According to patent US8227508B2, “Dietary and pharmaceutical compositions containing carnosol and/or rosmanol and their uses” (DSM IP Assets B.V., priority 2006, dated 2012):

What was measured:
[1] = test system: mouse; test: Porsolt's Forced Swim Test (FST); type: in vivo
Experimental: The Forced Swim Test (FST) was first reported in 1977 for screening of antidepressant-like compounds in rats (Porsolt et al 1977 Nature, 266:730-732) and, later, modified for testing mice (Porsolt et al 1977 Arch. Int. Pharmacodynamie, 229:327-336).
In two separate experiments, mice were tested following either i.p. or p.o. administration of carnosol. Mice were individually placed in a cylinder containing water (22° C.) from which they could not escape. The mice were placed in the water for 6 min and the duration of immobility during the last 4 min was measured. Ten to fifteen mice were studied per group. Carnosol was evaluated at 3, 10, 30 mg/kg body weight (i.p. 30 min before the test) or 200, 400, 600 mg/kg body weight (p.o., 24, 5 and 1 h before the test), and compared with vehicle control groups. Imipramine (32 mg/kg i.p., or p.o., respectively), administered under the same experimental conditions, was used as reference substance. Immobility and swimming time were assessed.

[2] = molecular target: T1, human glycine transporter 1b (GlyT1) (Homo sapiens, UniProt P48067); test: Glycine uptake inhibition in CHO cells expressing GlyT1; type: cell-based; settings: 60 nM [3H]-glycine, read-out: IC50 for tritiated glycine uptake
T1 construct: expressed in transfected cells; host or cells: CHO
T1 sequence (P48067 1-652 isoform P48067-3): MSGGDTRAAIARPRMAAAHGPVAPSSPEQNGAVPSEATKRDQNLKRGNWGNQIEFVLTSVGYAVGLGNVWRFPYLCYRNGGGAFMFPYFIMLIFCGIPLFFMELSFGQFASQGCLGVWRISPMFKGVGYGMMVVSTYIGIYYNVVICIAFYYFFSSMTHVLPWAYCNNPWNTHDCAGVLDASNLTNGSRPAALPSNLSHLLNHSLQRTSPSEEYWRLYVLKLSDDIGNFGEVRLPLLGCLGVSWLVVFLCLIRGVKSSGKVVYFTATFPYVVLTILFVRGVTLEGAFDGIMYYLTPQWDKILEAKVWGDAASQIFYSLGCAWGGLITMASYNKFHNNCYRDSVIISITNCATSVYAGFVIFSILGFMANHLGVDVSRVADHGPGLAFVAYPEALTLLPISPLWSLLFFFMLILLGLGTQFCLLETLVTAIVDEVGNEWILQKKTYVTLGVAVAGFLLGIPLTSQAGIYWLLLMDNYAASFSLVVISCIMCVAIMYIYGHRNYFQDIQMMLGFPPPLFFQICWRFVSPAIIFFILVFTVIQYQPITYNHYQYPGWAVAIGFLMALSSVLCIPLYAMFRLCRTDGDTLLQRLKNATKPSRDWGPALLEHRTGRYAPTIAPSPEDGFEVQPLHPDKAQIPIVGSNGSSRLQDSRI
Experimental: CHO cells stably expressing the human glycine transporter 1b cDNA (GlyT1) were routinely grown in Dulbecco's Modified Eagle's Medium (Invitrogen, Carlsbad, USA) containing 10% dialysed foetal calf serum, penicillin, streptomycin, proline and the antibiotic G418. Cells were harvested by trypsinisation one day prior to the assay and were seeded in the above mentioned medium. Immediately prior to the assay, the medium was replaced by uptake buffer containing 150 mM NaCl, 1 mM CaCl2, 2.5 mM KCl, 2.5 mM MgCl2, 10 mM Glucose and 10 mM N-2-hydroxyethylpiperazine-N′-2-ethanesulfonic acid (HEPES buffer).
Glycine uptake into the cells was determined by addition of 60 nM radiolabelled [^3H]-glycine (Amersham Biosciences GE Healthcare, Slough, UK) and incubation for 30 minutes at room temperature. Following removal of unincorporated label by gentle washing three times with the above buffer, incorporated glycine was quantified by liquid scintillation counting.

[3] = test system: mouse; test: Four Plates Test; type: in vivo; settings: 32 mg/kg p.o. −1 h (vehicle at −24 h and −5 h)
From the text: The method, which detects anxiolytic activity, follows that described by Aron et al (1971, Neuropharmacology, 10:459-469). Anxiolytics (benzodiazepines) increase the number of punished crossings. Animals were placed individually in a white plastic enclosure containing a floor consisting of 4 metal plates connected to an electric shock generator (Apelex: type 011346). Each mouse was left to explore freely for 15 seconds. Then, every time it crossed from one plate to another, it received a weak electric shock (2.5 mA, 1.5 s). The number of punished crossings was counted during a 1 minute test. 15 mice were studied per group. The test was performed blind.
Carnosol was evaluated at 3 doses (200, 400, 600 mg/kg), administered p.o. 24 h, 5 h and 1 h before the test, and compared with a vehicle control (corn oil) group.
Clobazam (32 mg/kg p.o.), administered 1 h before the test, was used as reference substance. Mice in this group received additional administrations of vehicle at 24 h and 5 h before the test in order to maintain experimental blinding.

[4] = test system: mouse; test: Marble burying test; type: in vivo; settings: 32 mg/kg i.p., −30 min
Experimental: The method applied here follows that described by Broekkamp et al. (1986). Mice (n=15 per treatment group) were individually placed in transparent plastic cages (33×21×18 cm) with 5 cm of sawdust on the floor and 25 marbles (diameter 1 cm) grouped in the centre of the cage. A second, up-turned, cage served as a lid. The number of marbles covered by sawdust (by at least two-thirds) was counted at the end of the 30-min test period. Tests were performed by investigators blind to the drug treatment protocol.
Prior to testing, all test cages and marbles were “impregnated” by leaving 10 naive mice in each cage for 15 minutes.
Carnosol (3, 10 and 30 mg/kg) and rosmanol (10, 30 and 100 mg/kg) were administered i.p. 30 min before the test, and compared with a vehicle control group. Fluoxetine (32 mg/kg), administered under the same experimental conditions, was used as a reference substance.

CN(C)CCCN1c2ccccc2CCc2ccccc21 [imipramine, reference compound]
Duration of immobility (% change from control) ([1]; 32 mg/kg i.p., −30 min): −80%
Duration of immobility (% change from control) ([1]; 32 mg/kg p.o., −24, −5, −1 h): −48%

CN(CC[C@@H](Oc1ccc(C(F)(F)F)cc1)c1ccccc1)CC(=O)O [ORG24598, reference compound]
IC50 [2]: 20 nM

CN1C(=O)CC(=O)N(c2ccccc2)c2cc(Cl)ccc21 [Clobazam, reference compound]
Number of punished crossings, % change from control [3]: +118%
Number of punished crossings, mean [3]: 6.1

CNCCC(Oc1ccc(C(F)(F)F)cc1)c1ccccc1 (stereo not drawn) [Fluoxetine, fluoxetine, reference compound]
Number of marbles buried (% change from control) [4]: −92%
